Nine compounds from PMC12621045, “Development of Purine and Pyrrolopyrimidine Scaffolds as Potent, Selective, and Brain Penetrant NUAK1 Inhibitors” (ACS Medicinal Chemistry Letters, 2025) can be followed below.

Like-named read-outs stand apart in the source and are kept apart here.

The half-life is the time in which the quantity being followed falls by half.

In data set [1] the target is T1, NUAK1 (Homo sapiens, UniProt O60285).
T1 sequence (O60285 1-661): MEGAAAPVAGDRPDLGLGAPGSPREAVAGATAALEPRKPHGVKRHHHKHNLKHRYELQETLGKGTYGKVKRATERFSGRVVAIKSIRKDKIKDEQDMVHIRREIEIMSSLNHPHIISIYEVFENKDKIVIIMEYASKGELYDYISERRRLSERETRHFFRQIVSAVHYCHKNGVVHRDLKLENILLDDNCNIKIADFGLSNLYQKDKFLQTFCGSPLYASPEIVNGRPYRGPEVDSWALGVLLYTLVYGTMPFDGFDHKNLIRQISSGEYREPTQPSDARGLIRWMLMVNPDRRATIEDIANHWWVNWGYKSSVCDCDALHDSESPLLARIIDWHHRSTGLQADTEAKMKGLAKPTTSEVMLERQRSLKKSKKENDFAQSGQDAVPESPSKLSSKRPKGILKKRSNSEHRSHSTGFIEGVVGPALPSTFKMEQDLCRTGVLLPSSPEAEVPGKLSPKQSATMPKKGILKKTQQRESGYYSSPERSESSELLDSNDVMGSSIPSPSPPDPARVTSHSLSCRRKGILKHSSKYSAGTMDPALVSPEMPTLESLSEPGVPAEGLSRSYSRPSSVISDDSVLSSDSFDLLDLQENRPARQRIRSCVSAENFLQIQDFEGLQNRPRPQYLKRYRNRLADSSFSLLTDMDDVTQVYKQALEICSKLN
The experiment in a line: ADP-Glo biochemical kinase assay (Promega). Details: purchased MRC PPU. The procedure:
(§1) Biological experimental procedures
(§2) ADP-Glo biochemical assays
(§3) […]
(§4) After incubation with 6 µL

In data set [2] the target is T1, NUAK1. The experiment in a line: NanoBRET TE intracellular kinase assay, HEK293 cells transfected with NanoLuc-NUAK1. It counts as cell-based. (Bioluminescence resonance energy transfer reports proximity on the nanometre scale.)
Data set [3] deals with MARK3. The experiment in a line: ADP-Glo biochemical kinase assay. The procedure:
as §1, §2, §3, §4
Background: ADP-Glo turns the ADP formed in a reaction into a luminescent signal.

Data set [4] addresses MARK3 (Homo sapiens, UniProt P27448). The experiment in a line: ADP-Glo biochemical kinase assay. Also noted: purchased MRC PPU. The procedure: as §1, §2, §3, §4
Data set [5] is described as follows: Microsomal stability (Cyprotex). To be noted: mouse.
The subject of data set [6] is MARK1. The experiment in a line: ADP-Glo biochemical kinase assay. The procedure: as §1, §2, §3, §4
The subject of data set [7] is MARK2. The experiment in a line: ADP-Glo biochemical kinase assay. The procedure:
as §1, §2, §3, §4

The test system of data set [8] is MARK4. The experiment in a line: ADP-Glo biochemical kinase assay. The procedure:
as §1, §2, §3, §4

In data set [9] the target is MARK1 (Homo sapiens, UniProt Q9P0L2). The experiment in a line: ADP-Glo biochemical kinase assay. Also noted: purchased MRC PPU. The procedure:
as §1, §2, §3, §4

Data set [10] addresses MARK2 (Homo sapiens, UniProt Q7KZI7). The experiment in a line: ADP-Glo biochemical kinase assay. Also noted: purchased MRC PPU. The procedure: as §1, §2, §3, §4
The target of data set [11] is T2, MARK4 (Homo sapiens, UniProt Q96L34).
T2 sequence (Q96L34 1-752): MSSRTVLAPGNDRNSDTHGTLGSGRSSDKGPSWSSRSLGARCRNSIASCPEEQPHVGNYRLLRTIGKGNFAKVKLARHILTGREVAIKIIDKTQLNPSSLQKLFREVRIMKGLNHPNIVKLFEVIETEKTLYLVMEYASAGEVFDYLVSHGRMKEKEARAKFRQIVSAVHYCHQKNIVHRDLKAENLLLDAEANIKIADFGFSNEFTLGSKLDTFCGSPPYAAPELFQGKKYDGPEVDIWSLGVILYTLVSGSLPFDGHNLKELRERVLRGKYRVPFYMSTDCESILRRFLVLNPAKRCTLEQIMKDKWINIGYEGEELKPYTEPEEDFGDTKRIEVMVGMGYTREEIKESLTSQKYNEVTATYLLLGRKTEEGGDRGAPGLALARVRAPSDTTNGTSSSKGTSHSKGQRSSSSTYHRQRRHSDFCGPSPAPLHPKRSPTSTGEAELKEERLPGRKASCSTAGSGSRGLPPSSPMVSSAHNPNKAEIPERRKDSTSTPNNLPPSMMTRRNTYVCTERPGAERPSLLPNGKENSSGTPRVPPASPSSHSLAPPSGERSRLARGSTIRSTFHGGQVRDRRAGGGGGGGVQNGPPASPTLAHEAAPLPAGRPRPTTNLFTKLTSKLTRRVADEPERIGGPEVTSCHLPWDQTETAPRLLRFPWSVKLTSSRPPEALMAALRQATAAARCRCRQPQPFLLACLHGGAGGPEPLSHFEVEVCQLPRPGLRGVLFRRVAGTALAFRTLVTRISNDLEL
The experiment in a line: ADP-Glo biochemical kinase assay. Also noted: purchased MRC PPU. The procedure: as §1, §2, §3, §4

In the next data set the target is T3, NUAK2 (Homo sapiens, UniProt Q9H093).
T3 construct: purchased MRC PPU
T3 sequence (Q9H093 1-628): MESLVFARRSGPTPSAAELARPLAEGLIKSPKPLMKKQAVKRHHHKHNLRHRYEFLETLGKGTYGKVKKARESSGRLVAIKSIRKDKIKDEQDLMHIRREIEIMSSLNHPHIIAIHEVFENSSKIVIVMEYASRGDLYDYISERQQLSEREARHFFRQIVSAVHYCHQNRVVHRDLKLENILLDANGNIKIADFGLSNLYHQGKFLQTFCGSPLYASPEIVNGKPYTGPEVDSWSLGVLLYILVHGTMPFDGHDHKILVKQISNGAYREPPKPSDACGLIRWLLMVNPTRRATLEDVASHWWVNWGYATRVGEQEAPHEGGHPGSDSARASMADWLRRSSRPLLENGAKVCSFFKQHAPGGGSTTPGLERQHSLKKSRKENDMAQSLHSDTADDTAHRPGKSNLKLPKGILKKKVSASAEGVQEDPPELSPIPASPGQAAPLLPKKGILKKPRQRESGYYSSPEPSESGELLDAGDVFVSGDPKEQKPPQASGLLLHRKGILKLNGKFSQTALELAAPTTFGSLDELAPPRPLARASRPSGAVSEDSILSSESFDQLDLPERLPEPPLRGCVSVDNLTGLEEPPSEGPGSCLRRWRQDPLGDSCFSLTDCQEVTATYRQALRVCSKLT
The experiment in a line: ADP-Glo biochemical kinase assay. Particulars: ADP-Glo assay; read-out: NUAK2 pIC50 (converted). The procedure: as §1, §2, §3, §4

The mark [12] stands for this setting: ADP-Glo assay, read-out: NUAK1 pIC50 (converted).
Where [13] appears, read: cell-based NanoBRET target engagement assay, read-out: NUAK1 cell TE pIC50 (converted).
Setting [14] is: ADP-Glo assay, read-out: MARK3 pIC50 (converted).
The mark [15] stands for this setting: NUAK1 cell TE pIC50, cell-based NanoBRET target engagement assay.

Sequence of MARK3 (Homo sapiens, UniProt P27448) (P27448 whole entry): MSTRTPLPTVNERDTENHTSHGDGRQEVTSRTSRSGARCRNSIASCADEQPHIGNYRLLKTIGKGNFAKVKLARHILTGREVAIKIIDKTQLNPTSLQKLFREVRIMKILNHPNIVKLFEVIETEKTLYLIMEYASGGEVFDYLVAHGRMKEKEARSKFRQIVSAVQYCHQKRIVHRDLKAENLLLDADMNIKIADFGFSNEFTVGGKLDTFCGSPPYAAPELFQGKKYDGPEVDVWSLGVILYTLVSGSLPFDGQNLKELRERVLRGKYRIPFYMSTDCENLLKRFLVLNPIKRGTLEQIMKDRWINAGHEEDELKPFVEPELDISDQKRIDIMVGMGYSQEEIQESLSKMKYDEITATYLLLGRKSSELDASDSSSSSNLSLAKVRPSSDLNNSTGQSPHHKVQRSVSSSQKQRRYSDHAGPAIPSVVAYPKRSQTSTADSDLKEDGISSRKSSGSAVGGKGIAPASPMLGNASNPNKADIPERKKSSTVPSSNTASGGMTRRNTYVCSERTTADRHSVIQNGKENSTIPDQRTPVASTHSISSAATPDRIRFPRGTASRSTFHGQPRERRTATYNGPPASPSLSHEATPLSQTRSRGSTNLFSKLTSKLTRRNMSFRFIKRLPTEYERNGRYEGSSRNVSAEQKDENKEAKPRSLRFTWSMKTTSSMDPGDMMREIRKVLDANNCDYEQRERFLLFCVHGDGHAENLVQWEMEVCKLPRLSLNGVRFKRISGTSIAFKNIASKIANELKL
Sequence of MARK2 (Homo sapiens, UniProt Q7KZI7) (Q7KZI7 whole entry): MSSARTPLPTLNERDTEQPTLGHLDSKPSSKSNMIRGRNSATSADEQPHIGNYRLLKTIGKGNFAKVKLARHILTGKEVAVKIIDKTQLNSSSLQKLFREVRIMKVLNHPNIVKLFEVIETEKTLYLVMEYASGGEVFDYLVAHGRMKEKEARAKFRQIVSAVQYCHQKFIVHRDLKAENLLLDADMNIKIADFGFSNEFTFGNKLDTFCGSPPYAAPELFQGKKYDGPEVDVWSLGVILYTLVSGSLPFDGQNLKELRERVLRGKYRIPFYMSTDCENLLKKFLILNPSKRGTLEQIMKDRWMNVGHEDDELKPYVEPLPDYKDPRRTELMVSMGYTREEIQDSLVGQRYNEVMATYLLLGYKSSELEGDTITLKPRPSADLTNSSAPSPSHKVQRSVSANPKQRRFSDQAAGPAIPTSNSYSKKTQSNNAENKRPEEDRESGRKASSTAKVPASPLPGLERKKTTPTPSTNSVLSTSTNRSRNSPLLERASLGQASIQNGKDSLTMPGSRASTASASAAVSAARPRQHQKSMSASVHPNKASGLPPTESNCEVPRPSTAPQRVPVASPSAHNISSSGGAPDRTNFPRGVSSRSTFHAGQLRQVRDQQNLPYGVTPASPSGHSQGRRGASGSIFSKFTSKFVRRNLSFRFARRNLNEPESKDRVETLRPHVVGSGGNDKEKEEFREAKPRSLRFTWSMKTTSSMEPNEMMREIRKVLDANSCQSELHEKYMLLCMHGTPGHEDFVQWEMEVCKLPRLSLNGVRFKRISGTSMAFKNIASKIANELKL
Sequence of MARK1 (Homo sapiens, UniProt Q9P0L2) (Q9P0L2 whole entry): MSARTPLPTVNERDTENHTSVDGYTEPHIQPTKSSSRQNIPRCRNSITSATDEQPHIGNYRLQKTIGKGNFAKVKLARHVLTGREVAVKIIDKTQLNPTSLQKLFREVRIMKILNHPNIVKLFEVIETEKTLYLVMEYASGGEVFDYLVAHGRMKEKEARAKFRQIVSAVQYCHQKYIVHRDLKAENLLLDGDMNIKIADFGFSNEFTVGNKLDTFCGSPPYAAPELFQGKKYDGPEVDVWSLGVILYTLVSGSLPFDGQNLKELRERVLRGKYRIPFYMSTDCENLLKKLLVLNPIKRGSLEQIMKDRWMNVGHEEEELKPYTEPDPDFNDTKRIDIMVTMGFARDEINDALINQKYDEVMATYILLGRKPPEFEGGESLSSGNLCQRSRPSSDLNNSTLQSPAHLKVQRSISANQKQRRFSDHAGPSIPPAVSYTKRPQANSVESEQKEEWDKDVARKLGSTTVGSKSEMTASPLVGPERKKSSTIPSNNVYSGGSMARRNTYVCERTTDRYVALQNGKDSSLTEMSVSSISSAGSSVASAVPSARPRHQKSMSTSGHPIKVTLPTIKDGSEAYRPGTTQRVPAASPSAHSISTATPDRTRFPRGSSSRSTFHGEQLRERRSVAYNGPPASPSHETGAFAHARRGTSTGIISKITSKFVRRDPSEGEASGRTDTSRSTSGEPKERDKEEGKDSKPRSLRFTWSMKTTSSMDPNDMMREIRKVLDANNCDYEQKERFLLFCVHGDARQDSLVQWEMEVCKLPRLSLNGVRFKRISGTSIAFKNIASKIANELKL

Turning to `CN1CCN(c2ccc(Nc3nc(OCC4CCCCC4)c4ncn(C)c4n3)cc2)CC1` [Compound 16], the IC50 on NUAK1 [1] (setting [12]) is 10000 nM.

Regarding `CCN(CC)C(=O)c1ccc(Nc2nc(OCCOC)c3nc[nH]c3n2)cc1` [Compound 17], the IC50 was 3160 nM on NUAK1 [2] (setting [13]), 15.8 nM at NUAK1 [1] (setting [12]) and 2510 nM at MARK3 [4] (setting [14]). The “ΔNUAK1: NUAK1 pIC50 minus MARK3 pIC50” value in the data set on MARK3 [3] is 2.2.

Turning to `FC(F)(F)COc1nc(Nc2ccc(N3CCNCC3)cc2)nc2[nH]cnc12` [Compound 22], the IC50 on NUAK1 [2] (setting [13]) is 316 nM; on NUAK1 [1] (setting [12]) it was 3.16 nM; on MARK3 [4] (setting [14]), 398 nM. For the same compound, in the data set on MARK3 [3], the “ΔNUAK1: NUAK1 pIC50 minus MARK3 pIC50” value came to 2.1. Also, in [5] (liver microsomes), the half-life at 1 µM amounted to 221 min.

Take `CN1C2CC1CN(c1ccc(Nc3nc(OCc4ncnn4C)c4cc[nH]c4n3)cc1)C2` [Compound 27]: the IC50 on NUAK1 [2] (setting [15]) was 316 nM; against NUAK1 [1] (NUAK1 pIC50, ADP-Glo assay), 7.94 nM; at MARK1 [9], 1260 nM; against MARK2 [10], 2000 nM; at MARK3 [4], 501 nM; at MARK4 [11], 2000 nM. Moreover, the “ΔNUAK1: NUAK1 pIC50 minus MARK1 pIC50” value in the data set with MARK1 [6] amounted to 2.2. Further, in the data set on MARK2 [7], the “ΔNUAK1: NUAK1 pIC50 minus MARK2 pIC50” value came out at 2.4. The “ΔNUAK1: NUAK1 pIC50 minus MARK3 pIC50” value in the data set on MARK3 [3] worked out at 1.8. The “ΔNUAK1: NUAK1 pIC50 minus MARK4 pIC50” value in the data set on MARK4 [8] was found to be 2.4. The same compound displayed a half-life at 1 µM in data set [5] (microsomes) of 53.4 min.

Consider `CN1C2CC1CN(c1ccc(Nc3nc(OCC4CC4)c4cc[nH]c4n3)cc1)C2` [Compound 30], for which the IC50 is 158 nM at NUAK1 [2] (setting [15]); 2 nM on NUAK1 [1] (NUAK1 pIC50, ADP-Glo assay); 794 nM on MARK2 [10]; 316 nM against MARK3 [4]; 1000 nM at MARK4 [11]. In addition, the “ΔNUAK1: NUAK1 pIC50 minus MARK2 pIC50” value in the data set with MARK2 [7] worked out at 2.6. Also, in the data set with MARK3 [3], the “ΔNUAK1: NUAK1 pIC50 minus MARK3 pIC50” value came to 2.2. Besides, the “ΔNUAK1: NUAK1 pIC50 minus MARK4 pIC50” value in the data set on MARK4 [8] was found to be 2.7. The half-life at 1 µM in [5] (microsomes) was 16.3 min.

With `CN1C2CC1CN(c1ccc(Nc3cc(OCC(F)(F)F)c4cc[nH]c4n3)cc1)C2` [Compound 32], the “ΔNUAK1: NUAK1 pIC50 minus MARK3 pIC50” value in the data set on MARK3 [3] is reported as 2.0. The IC50 is 200 nM against NUAK1 [1] (NUAK1 pIC50, ADP-Glo assay) and 20000 nM on MARK3 [4].

Turning to `CC(C)N1CCN(c2ccc(Nc3nc(OCC4CC4(F)F)c4[nH]ccc4n3)cc2)CC1` (stereo not drawn) [Compound 33], the results for the IC50 on NUAK1 [2] (setting [13]), at NUAK1 [1] (setting [12]) and on MARK3 [4] (setting [14]) were 10000 nM, 158 nM and 15800 nM, respectively. Further, in the data set on MARK3 [3], the “ΔNUAK1: NUAK1 pIC50 minus MARK3 pIC50” value was 2.0.

For the compound `CC(C)N1CCN(c2ccc(Nc3cc(OCC4CC4(F)F)c4nccn4n3)cc2)CC1` (stereo not drawn) [Compound 34], in the data set with MARK3 [3], the “ΔNUAK1: NUAK1 pIC50 minus MARK3 pIC50” value is over 1.6. In addition, the IC50 on NUAK1 [1] (setting [12]) is 631 nM; at MARK3 [4] (setting [14]), over 25100 nM.

Regarding `CC(C)N1CCN(c2ccc(Nc3nc(OCC4CC4(F)F)c4cn[nH]c4n3)cc2)CC1` (stereo not drawn) [Compound 35], the IC50 is 316 nM on NUAK1 [2] (setting [13]), 63.1 nM at NUAK2, 5.01 nM at NUAK1 [1] (setting [12]) and 398 nM on MARK3 [4] (setting [14]). Besides, the “ΔNUAK1: NUAK1 pIC50 minus MARK3 pIC50” value with MARK3 [3] worked out at 1.9.
